Legend:
Assay in all cases: In vitro combination study with tazemetostat, cell proliferation (Cell Titer Glo)
NCI-H1573 = conditions: 7 days tazemetostat pre-treatment, 6 days co-treatment with second agent
Protocol: (§1) Initial proliferation studies were performed to determine the IC50 of tazemetostat in each cell line. For the screen, tazemetostat was used at concentrations bracketed around the IC50 value. If 50% inhibitory concentration was not reached then tazemetostat was tested starting at 10 μM.
(§2) In order to study the effect of dual combination of tazemetostat and a second agent on cell proliferation, cells in log-linear phase growth rate were pre-treated with various concentrations of tazemetostat or DMSO for 7 days in flasks, plated in 384-well plates in the absence of compounds and co-treated on day 8 with tazemetostat or DMSO and the second agent serially diluted for additional 6 days (as depicted in FIG. 1). On day 15, plates were developed for endpoint analysis using Cell Titer Glo to measure ATP content, which was used as an indicator of cell viability. DMSO concentration was kept constant throughout the assay at 0.15% v/v.
(§3) NCI-H1573 was cultured in DMEM: F12 Medium containing the following components: 0.02 mg/ml insulin, 0.01 mg/ml transferrin, 25 nM sodium selenite, 50 nM Hydrocortisone, 1 ng/ml Epidermal Growth Factor, 0.01 mM ethanolamine, 0.01 mM phosphorylethanolamine, 100 pM triiodothyronine, 0.5% (w/v) bovine serum albumin, 0.5 mM sodium pyruvate, 4.5 mM L-glutamine and 1% v/v Pen/Strep.

NCI-H1993 = conditions: 7 days tazemetostat pre-treatment, 6 days co-treatment with second agent
Protocol: as §1, §2

NCI-H23 = conditions: 7 days tazemetostat pre-treatment, 6 days co-treatment with second agent
HCC827 = conditions: 7 days tazemetostat pre-treatment, 6 days co-treatment with second agent
Protocol: as §1, §2, §3

A427 = conditions: A427; 7 days tazemetostat pre-treatment, 6 days co-treatment with second agent
Calu-3 = conditions: 7 days tazemetostat pre-treatment, 6 days co-treatment with second agent
NCI-H838 = conditions: 7 days tazemetostat pre-treatment, 6 days co-treatment with second agent
Calu-6 = conditions: 7 days tazemetostat pre-treatment, 6 days co-treatment with second agent
NCI-H2030 = conditions: 7 days tazemetostat pre-treatment, 6 days co-treatment with second agent
NCI-H460 = conditions: 7 days tazemetostat pre-treatment, 6 days co-treatment with second agent
Protocol: as §1, §2
(§4) All cell lines were obtained from American Type Culture Collection (ATCC; Rockville, Md.). […] A427, Calu-3, Calu-6 cell lines were cultured in EMEM+10% Fetal bovine serum (FBS)+1% v/v Penicillin/Streptomycin (P/S).

NCI-H2122 = conditions: 7 days tazemetostat pre-treatment, 6 days co-treatment with second agent
NCI-H1793 = conditions: 7 days tazemetostat pre-treatment, 6 days co-treatment with second agent
Protocol: as §1, §2, §3

NCI-H1703 = conditions: 7 days tazemetostat pre-treatment, 6 days co-treatment with second agent
Protocol: as §1, §2

NCI-H1299 = conditions: 7 days tazemetostat pre-treatment, 6 days co-treatment with second agent
NCI-H661 = conditions: 7 days tazemetostat pre-treatment, 6 days co-treatment with second agent
Protocol: as §1, §2, §4

NCI-H2110 = conditions: 7 days tazemetostat pre-treatment, 6 days co-treatment with second agent
Protocol: as §1, §2

A549 = conditions: 7 days tazemetostat pre-treatment, 6 days co-treatment with second agent
NCI-H522 = conditions: 7 days tazemetostat pre-treatment, 6 days co-treatment with second agent
Protocol: as §1, §2

| SMILES | combinatorial effect with tazemetostat (Loewe volume class) (NCI-H1573) | combinatorial effect with tazemetostat (Loewe volume class) (NCI-H1993) | combinatorial effect with tazemetostat (Loewe volume class) (NCI-H23) | combinatorial effect with tazemetostat (Loewe volume class) (HCC827) | combinatorial effect with tazemetostat (Loewe volume class) (A427) | combinatorial effect with tazemetostat (Loewe volume class) (Calu-3) | combinatorial effect with tazemetostat (Loewe volume class) (NCI-H838) | combinatorial effect with tazemetostat (Loewe volume class) (Calu-6) | combinatorial effect with tazemetostat (Loewe volume class) (NCI-H2030) | combinatorial effect with tazemetostat (Loewe volume class) (NCI-H460) | combinatorial effect with tazemetostat (Loewe volume class) (NCI-H2122) | combinatorial effect with tazemetostat (Loewe volume class) (NCI-H1793) | combinatorial effect with tazemetostat (Loewe volume class) (NCI-H1703) | combinatorial effect with tazemetostat (Loewe volume class) (NCI-H1299) | combinatorial effect with tazemetostat (Loewe volume class) (NCI-H661) | combinatorial effect with tazemetostat (Loewe volume class) (NCI-H2110) | combinatorial effect with tazemetostat (Loewe volume class) (A549) | combinatorial effect with tazemetostat (Loewe volume class) (NCI-H522) |
| --- | --- | --- | --- | --- | --- | --- | --- | --- | --- | --- | --- | --- | --- | --- | --- | --- | --- | --- |
| C=CCn1c(=O)c2cnc(Nc3ccc(N4CCN(C)CC4)cc3)nc2n1-c1cccc(C(C)(C)O)n1 [MK-1775] | Syn. (Loewe volumes greater than 1 denoted “synergy”) | Add. (A value between −1 and 1 denoted “additivity”) | Syn. (Loewe volumes greater than 1 denoted “synergy”) | Add. (A value between −1 and 1 denoted “additivity”) | Syn. (Loewe volumes greater than 1 denoted “synergy”) | Add. (A value between −1 and 1 denoted “additivity”) | Add. (A value between −1 and 1 denoted “additivity”) | Syn. (Loewe volumes greater than 1 denoted “synergy”) | Syn. (Loewe volumes greater than 1 denoted “synergy”) | Add. (A value between −1 and 1 denoted “additivity”) | Add. (A value between −1 and 1 denoted “additivity”) | Syn. (Loewe volumes greater than 1 denoted “synergy”) | Syn. (Loewe volumes greater than 1 denoted “synergy”) | Add. (A value between −1 and 1 denoted “additivity”) | Syn. (Loewe volumes greater than 1 denoted “synergy”) | Add. (A value between −1 and 1 denoted “additivity”) | Add. (A value between −1 and 1 denoted “additivity”) | Syn. (Loewe volumes greater than 1 denoted “synergy”) |
| Cn1cnc2c(F)c(Nc3ccc(Br)cc3Cl)c(C(=O)NOCCO)cc21 [Selumetinib, selumetinib] | Syn. (Loewe volumes greater than 1 denoted “synergy”) | Syn. (Loewe volumes greater than 1 denoted “synergy”) | Add. (A value between −1 and 1 denoted “additivity”) | Add. (A value between −1 and 1 denoted “additivity”) | Syn. (Loewe volumes greater than 1 denoted “synergy”) | Syn. (Loewe volumes greater than 1 denoted “synergy”) | Syn. (Loewe volumes greater than 1 denoted “synergy”) | Syn. (Loewe volumes greater than 1 denoted “synergy”) | Add. (A value between −1 and 1 denoted “additivity”) | Anta. (volumes <−1 denoted “antagonism”) | Anta. (volumes <−1 denoted “antagonism”) | Syn. (Loewe volumes greater than 1 denoted “synergy”) | Syn. (Loewe volumes greater than 1 denoted “synergy”) | Add. (A value between −1 and 1 denoted “additivity”) | Syn. (Loewe volumes greater than 1 denoted “synergy”) | Syn. (Loewe volumes greater than 1 denoted “synergy”) | Add. (A value between −1 and 1 denoted “additivity”) | Syn. (Loewe volumes greater than 1 denoted “synergy”) |
| CC(=O)Nc1cccc(-n2c(=O)n(C3CC3)c(=O)c3c(Nc4ccc(I)cc4F)n(C)c(=O)c(C)c32)c1 [Trametinib, trametinib] | Syn. (Loewe volumes greater than 1 denoted “synergy”) | Syn. (Loewe volumes greater than 1 denoted “synergy”) | Add. (A value between −1 and 1 denoted “additivity”) | Syn. (Loewe volumes greater than 1 denoted “synergy”) | Syn. (Loewe volumes greater than 1 denoted “synergy”) | Syn. (Loewe volumes greater than 1 denoted “synergy”) | Syn. (Loewe volumes greater than 1 denoted “synergy”) | Add. (A value between −1 and 1 denoted “additivity”) | Syn. (Loewe volumes greater than 1 denoted “synergy”) | Anta. (volumes <−1 denoted “antagonism”) | Anta. (volumes <−1 denoted “antagonism”) | Syn. (Loewe volumes greater than 1 denoted “synergy”) | Syn. (Loewe volumes greater than 1 denoted “synergy”) | Syn. (Loewe volumes greater than 1 denoted “synergy”) | Add. (A value between −1 and 1 denoted “additivity”) | Syn. (Loewe volumes greater than 1 denoted “synergy”) | Anta. (volumes <−1 denoted “antagonism”) | Syn. (Loewe volumes greater than 1 denoted “synergy”) |
| CN(C)C(=O)c1cc2cnc(Nc3ccc(N4CCNCC4)cn3)nc2n1C1CCCC1 [Ribociclib, ribociclib] | Syn. (Loewe volumes greater than 1 denoted “synergy”) | Syn. (Loewe volumes greater than 1 denoted “synergy”) | No eff. | Add. (A value between −1 and 1 denoted “additivity”) | Syn. (Loewe volumes greater than 1 denoted “synergy”) | Syn. (Loewe volumes greater than 1 denoted “synergy”) | Add. (A value between −1 and 1 denoted “additivity”) | No eff. | Syn. (Loewe volumes greater than 1 denoted “synergy”) | Add. (A value between −1 and 1 denoted “additivity”) | Anta. (volumes <−1 denoted “antagonism”) | Syn. (Loewe volumes greater than 1 denoted “synergy”) | Anta. (volumes <−1 denoted “antagonism”) | Anta. (volumes <−1 denoted “antagonism”) | Syn. (Loewe volumes greater than 1 denoted “synergy”) | No eff. | Anta. (volumes <−1 denoted “antagonism”) | No eff. |

— patent US11452727B2, “Combination therapy for treating cancer” (Epizyme, Inc., priority 2017, dated 2022)
